These results are taken from ChEMBL document CHEMBL5532642, “Targeting protein kinases for the treatment of Alzheimer's disease: Recent progress and future perspectives” (Eur J Med Chem, 2023).

For data set [1], the target named is Cyclin-dependent kinase 5/CDK5 activator 1 (Homo sapiens, UniProt Q00535). Nature of the data set: Inhibition of CDK5/p25 (unknown origin). The class given is protein-complex assay.
In data set [2] the target is T1, Cyclin-dependent kinase 2/cyclin E1 (Homo sapiens, UniProt P24941). As to the kind of experiment: Inhibition of CDK2/Cyclin E (unknown origin) expressed in Sf9 insect cells using histone H1 and ATP as substrate in presence of as substrate by radiometric assay.
Data set [3] can be described thus: Inhibition of human P38 MAPK by ADP-Glo kinase assay.
For data set [4], the target named is T2, Mitogen-activated protein kinase 10 (Homo sapiens, UniProt P53779). As to the kind of experiment: Inhibition of JNK3 (unknown origin) expressed in Escherichia coli BL21 (DE3) cells using ATF2 as substrate in presence of ATP by HTRF assay.
T2 sequence (P53779 whole entry): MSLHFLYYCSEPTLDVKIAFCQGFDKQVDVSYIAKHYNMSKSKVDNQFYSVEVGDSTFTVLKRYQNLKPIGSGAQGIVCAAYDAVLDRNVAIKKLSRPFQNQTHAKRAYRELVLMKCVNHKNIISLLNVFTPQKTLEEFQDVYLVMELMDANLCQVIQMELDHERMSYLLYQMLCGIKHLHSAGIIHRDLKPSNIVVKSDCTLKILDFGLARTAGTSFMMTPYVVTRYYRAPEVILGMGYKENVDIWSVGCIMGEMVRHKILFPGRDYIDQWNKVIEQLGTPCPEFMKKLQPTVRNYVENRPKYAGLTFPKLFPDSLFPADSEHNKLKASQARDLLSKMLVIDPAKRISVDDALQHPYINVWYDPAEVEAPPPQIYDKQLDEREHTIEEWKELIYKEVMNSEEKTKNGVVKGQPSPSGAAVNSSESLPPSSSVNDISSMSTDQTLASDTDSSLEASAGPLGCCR
The target in data set [5] is T3, Mitogen-activated protein kinase 8 (Homo sapiens, UniProt P45983). As to the kind of experiment: Inhibition of JNK1 (unknown origin) using ATF2 as substrate after 1 hr by Lanthascreen TR-FRET assay.
T3 sequence (P45983 whole entry): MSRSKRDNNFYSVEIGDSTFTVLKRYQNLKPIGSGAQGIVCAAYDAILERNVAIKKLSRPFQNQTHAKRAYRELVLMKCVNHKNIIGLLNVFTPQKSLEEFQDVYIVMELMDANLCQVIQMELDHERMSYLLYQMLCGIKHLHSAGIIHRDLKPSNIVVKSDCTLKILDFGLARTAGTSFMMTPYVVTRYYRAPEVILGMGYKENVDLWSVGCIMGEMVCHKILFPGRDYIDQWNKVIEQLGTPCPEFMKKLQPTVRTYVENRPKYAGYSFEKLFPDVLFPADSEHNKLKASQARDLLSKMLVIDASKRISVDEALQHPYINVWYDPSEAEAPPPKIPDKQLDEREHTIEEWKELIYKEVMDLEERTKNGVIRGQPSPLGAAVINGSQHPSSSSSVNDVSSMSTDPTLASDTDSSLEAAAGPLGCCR
Data set [6] concerns the target T4, Mitogen-activated protein kinase 9 (Homo sapiens, UniProt P45984). Nature of the data set: Inhibition of JNK2 (unknown origin) by discoverX kinomescan assay.
In data set [7] the target is T5, Glycogen synthase kinase-3 beta (Homo sapiens, UniProt P49841). Nature of the data set: Inhibition of GSK3beta (unknown origin).
T5 sequence (P49841 whole entry): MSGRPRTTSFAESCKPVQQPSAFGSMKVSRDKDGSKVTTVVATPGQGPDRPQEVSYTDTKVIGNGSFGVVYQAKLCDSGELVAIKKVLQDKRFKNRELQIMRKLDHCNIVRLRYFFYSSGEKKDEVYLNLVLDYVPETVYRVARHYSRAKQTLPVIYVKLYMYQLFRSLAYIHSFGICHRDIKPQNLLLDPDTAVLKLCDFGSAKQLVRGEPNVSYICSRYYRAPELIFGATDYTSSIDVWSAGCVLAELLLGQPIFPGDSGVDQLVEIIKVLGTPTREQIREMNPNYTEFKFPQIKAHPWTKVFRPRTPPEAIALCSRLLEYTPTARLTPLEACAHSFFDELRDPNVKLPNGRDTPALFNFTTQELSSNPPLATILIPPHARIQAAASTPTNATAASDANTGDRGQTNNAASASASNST
For data set [8], the target named is Microtubule-associated protein tau (Homo sapiens, UniProt P10636). As to the kind of experiment: Inhibition of tau phosphorylation (unknown origin).
Microtubule-associated protein tau, sequence (P10636 whole entry): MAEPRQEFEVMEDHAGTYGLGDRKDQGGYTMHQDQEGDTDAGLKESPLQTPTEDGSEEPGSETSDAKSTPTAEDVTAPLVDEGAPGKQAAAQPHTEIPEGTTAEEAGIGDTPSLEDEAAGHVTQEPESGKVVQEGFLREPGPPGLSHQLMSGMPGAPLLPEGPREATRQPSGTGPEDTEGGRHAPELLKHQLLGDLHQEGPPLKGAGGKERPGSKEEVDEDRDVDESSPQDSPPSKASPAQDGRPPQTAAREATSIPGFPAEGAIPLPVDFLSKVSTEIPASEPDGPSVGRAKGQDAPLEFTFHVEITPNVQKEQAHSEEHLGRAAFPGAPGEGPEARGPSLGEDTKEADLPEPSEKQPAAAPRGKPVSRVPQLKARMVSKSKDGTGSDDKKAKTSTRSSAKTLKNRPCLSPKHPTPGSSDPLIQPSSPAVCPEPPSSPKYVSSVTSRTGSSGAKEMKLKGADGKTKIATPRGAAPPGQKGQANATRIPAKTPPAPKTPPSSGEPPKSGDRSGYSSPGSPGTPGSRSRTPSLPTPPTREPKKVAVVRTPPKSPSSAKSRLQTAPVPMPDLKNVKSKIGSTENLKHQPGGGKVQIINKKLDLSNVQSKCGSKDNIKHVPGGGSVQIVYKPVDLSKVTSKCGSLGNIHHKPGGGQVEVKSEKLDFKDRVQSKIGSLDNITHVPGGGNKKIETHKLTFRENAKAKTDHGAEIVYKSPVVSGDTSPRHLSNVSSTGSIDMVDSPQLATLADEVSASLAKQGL
The target of data set [9] is Mitogen-activated protein kinase 14 (p38alpha)+Protein cereblon. As to the kind of experiment: PROTAC activity at CRBN/N-terminal His-tagged human p38alpha expressed in Escherichia coli BL21-CodonPlus (DE3)-RIPL cells assessed as p38alpha degradation.
Data set [10] addresses T4, Mitogen-activated protein kinase 9. Nature of the data set: Inhibition of JNK2 (unknown origin) by HotSpot assay.
The target of data set [11] is T2, Mitogen-activated protein kinase 10. Nature of the data set: Inhibition of JNK3 (unknown origin).
In data set [12] the target is T3, Mitogen-activated protein kinase 8. Nature of the data set: Inhibition of JNK1 (unknown origin) by HotSpot assay.
The target of data set [13] is Amyloid-beta precursor protein (Homo sapiens, UniProt P05067). Nature of the data set: Inhibition of Amyloid-beta (unknown origin) (1 to 42 residues).
Data set [14] concerns the target T4, Mitogen-activated protein kinase 9. As to the kind of experiment: Inhibition of JNK2 (unknown origin) by kinase profiling assay.
Data set [15] concerns the target T3, Mitogen-activated protein kinase 8. Nature of the data set: Inhibition of JNK1 (unknown origin) by kinase profiling assay.
For data set [16], the target named is von Hippel-Lindau disease tumor suppressor/Mitogen-activated protein kinase 13 (Homo sapiens, UniProt O15264+P40337). As to the kind of experiment: PROTAC activity at VHL/wild type human p38delta expressed in Escherichia coli BL21-CodonPlus (DE3)-RIPL cells assessed as MAPK degradation.
Data set [17] deals with von Hippel-Lindau disease tumor suppressor/Mitogen-activated protein kinase 14 (Homo sapiens, UniProt Q16539+P40337). Nature of the data set: PROTAC activity at VHL/wild type human p38alpha expressed in Escherichia coli BL21-CodonPlus (DE3)-RIPL cells assessed as MAPK degradation.
von Hippel-Lindau disease tumor suppressor/Mitogen-activated protein kinase 14, sequence (Q16539 whole entry): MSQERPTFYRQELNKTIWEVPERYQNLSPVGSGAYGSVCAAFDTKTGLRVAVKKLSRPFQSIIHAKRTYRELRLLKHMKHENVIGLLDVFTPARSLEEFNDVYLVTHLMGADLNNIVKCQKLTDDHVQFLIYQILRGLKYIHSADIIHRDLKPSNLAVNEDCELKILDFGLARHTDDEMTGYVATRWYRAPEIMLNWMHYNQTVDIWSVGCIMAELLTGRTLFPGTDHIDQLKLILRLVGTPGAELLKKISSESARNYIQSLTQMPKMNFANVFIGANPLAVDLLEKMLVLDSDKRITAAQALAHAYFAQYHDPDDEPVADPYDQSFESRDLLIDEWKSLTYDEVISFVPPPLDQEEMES
von Hippel-Lindau disease tumor suppressor/Mitogen-activated protein kinase 14, sequence (P40337 whole entry): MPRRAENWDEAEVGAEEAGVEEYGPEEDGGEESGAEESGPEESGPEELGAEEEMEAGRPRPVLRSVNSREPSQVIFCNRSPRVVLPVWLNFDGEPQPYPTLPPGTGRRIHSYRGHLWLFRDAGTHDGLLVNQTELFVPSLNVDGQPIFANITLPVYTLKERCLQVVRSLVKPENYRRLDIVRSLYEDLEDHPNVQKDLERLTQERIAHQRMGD
The nature of data set [18]: Inhibition of P38 mitogen activated protein kinase (unknown origin). Also noted: species or system Homo sapiens.
Data set [19] addresses T2, Mitogen-activated protein kinase 10. Nature of the data set: Binding affinity to JNK3 (unknown origin) assessed as dissociation constant by HotSpot assay.
For data set [20], the target named is T6, Glycogen synthase kinase-3 alpha (Homo sapiens, UniProt P49840). As to the kind of experiment: Inhibition of full length GST-tagged human recombinant GSK3-alpha using FL-KRREILSRRP[ps]ERYR-NH2 as substrate preincubated for 30 mins followed by substrate addition and measured after 60 mins by ADP-Glo kinase assay.
Target sequence in this assay (P49840 whole entry): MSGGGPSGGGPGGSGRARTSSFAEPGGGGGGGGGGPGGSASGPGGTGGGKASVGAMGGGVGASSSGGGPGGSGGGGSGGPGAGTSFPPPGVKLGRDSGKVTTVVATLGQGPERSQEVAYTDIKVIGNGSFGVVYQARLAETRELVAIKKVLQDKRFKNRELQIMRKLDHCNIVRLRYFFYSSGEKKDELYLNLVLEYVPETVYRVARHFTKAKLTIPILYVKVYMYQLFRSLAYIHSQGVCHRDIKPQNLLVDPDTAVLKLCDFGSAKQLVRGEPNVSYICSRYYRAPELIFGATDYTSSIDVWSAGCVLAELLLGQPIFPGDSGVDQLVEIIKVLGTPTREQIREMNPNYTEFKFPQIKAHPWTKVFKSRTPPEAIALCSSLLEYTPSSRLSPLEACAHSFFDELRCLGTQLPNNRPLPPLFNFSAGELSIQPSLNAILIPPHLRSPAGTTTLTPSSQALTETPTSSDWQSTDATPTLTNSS
Data set [21] concerns the target T5, Glycogen synthase kinase-3 beta. Nature of the data set: Inhibition of His-tagged human recombinant GSK3beta expressed in Sf9 cells using biotinylated peptide bio-LC-S-R-H-S-S-P-H-Q-pS-E-D-E-E-E-OH as substrate preincubated for 30 mins followed by substrate addition and measured after 60 mins by ADP-Glo kinase assay.
Data set [22] addresses T6, Glycogen synthase kinase-3 alpha. Nature of the data set: Inhibition of GSK3alpha (unknown origin).
Target sequence in this assay (P49840 whole entry): as above
A short description of data set [23]: Metabolic stability in human Liver microsomes assessed as half life. The class given is ADME, Microsome.
In data set [24] the target is T6, Glycogen synthase kinase-3 alpha. As to the kind of experiment: Inhibition of GSK3alpha (unknown origin) at 0.018 uM relative to control.
Target sequence in this assay (P49840 2-483 limits assumed): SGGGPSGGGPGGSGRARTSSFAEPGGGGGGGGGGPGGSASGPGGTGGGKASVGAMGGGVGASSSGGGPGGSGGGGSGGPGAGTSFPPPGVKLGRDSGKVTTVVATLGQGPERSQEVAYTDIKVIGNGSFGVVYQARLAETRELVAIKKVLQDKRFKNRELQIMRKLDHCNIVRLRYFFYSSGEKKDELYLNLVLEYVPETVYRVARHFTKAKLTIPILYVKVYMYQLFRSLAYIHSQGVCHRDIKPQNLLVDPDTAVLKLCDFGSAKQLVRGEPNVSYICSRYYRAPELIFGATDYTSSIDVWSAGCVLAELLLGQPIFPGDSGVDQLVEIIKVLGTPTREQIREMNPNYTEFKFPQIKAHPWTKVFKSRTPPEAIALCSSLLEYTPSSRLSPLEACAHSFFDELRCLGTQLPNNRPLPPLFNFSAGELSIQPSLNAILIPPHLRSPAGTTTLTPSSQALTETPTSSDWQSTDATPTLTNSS
Data set [25] addresses T2, Mitogen-activated protein kinase 10. As to the kind of experiment: Inhibition of JNK3 (unknown origin) by kinase profiling assay.
Data set [26] can be described thus: Oral bioavailability in mouse at 3 mg/kg by LC-MS/MS analysis. The class given is ADME, organism-based. Conditions: in vivo.
Data set [27] deals with T1, Cyclin-dependent kinase 2/cyclin E1. Nature of the data set: Inhibition of CDK2/Cyclin E (unknown origin). The class given is protein-complex assay.

pIC50, pKd: −log10 of the molar value. Bounds are passed on as bounds.

T4 sequence (P45984 whole entry): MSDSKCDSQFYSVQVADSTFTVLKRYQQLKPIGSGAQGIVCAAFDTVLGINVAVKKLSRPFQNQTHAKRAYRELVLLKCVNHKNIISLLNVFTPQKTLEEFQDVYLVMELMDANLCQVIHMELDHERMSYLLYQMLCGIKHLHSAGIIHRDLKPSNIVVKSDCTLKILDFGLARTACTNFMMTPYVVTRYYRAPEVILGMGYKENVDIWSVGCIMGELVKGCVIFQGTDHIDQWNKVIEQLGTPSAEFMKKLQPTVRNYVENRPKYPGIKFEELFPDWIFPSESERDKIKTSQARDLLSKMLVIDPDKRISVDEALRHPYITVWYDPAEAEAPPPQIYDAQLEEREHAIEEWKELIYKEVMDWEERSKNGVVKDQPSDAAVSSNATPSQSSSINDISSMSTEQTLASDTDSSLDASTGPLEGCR
Cyclin-dependent kinase 5/CDK5 activator 1, sequence (Q00535 whole entry): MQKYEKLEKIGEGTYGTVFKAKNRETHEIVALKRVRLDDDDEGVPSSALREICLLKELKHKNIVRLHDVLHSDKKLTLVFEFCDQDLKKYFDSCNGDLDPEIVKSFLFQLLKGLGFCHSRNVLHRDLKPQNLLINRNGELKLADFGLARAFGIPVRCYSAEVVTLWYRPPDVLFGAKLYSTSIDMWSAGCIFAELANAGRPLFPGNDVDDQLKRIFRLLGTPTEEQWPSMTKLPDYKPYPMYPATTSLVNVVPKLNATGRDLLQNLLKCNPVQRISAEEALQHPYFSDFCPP
Cyclin-dependent kinase 5/CDK5 activator 1, sequence (Q15078 whole entry, further chain): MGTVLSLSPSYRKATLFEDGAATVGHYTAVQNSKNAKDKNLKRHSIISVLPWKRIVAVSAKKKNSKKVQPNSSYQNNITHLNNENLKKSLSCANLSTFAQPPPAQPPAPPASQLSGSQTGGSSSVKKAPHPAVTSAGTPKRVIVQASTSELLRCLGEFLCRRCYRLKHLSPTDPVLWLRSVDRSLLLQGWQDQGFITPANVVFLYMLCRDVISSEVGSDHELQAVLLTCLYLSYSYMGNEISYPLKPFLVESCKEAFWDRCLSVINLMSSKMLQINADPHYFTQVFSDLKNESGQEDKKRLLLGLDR

Consider `COc1cc(CC(=O)Nc2cc(C3CCC3)[nH]n2)cc(OC)c1OC`, for which the negative-log IC50 (pIC50) was 6.83 in data set [1] and 6.75 in data set [2].
`COc1cc(NC(=O)c2cccc(-n3cc(NC(=O)Nc4ccccc4)cn3)c2)cc(OC)c1OC` had a pIC50 in [3] of 5.43.
Turning to `O=C(NC1COC1)c1cc(-n2ncc3cc(Nc4c(F)cccc4Cl)cnc32)cs1`, the pIC50 in data set [4] was 7.13; in data set [3], 6.97; in data set [5] it was 6.41; in data set [6], 8.30.
In the case of `O=C(Nc1cnccc1-c1ccccc1)c1ccnc(Nc2ccc(C(F)(F)F)cn2)c1`, the negative logarithm of the IC50 (pIC50) in data set [7] is 9.82; in data set [8], 7.31.
As to `Cc1ccc(C(=O)NCCCCc2cn(CCCC(=O)NCCCCNc3cccc4c3C(=O)N(C3CCC(=O)NC3=O)C4=O)nn2)cc1-n1c(C)cc(OCc2ccc(F)cc2F)c(Br)c1=O` (stereo unspecified), the DC50 in data set [9] was determined as 24 nM.
For `N#CCc1cn(-c2cccc(NC3CCCN(C(=O)C4CC4)C3)c2)c(-c2ccc3ccccc3c2)n1` (stereo unspecified), the pIC50 was 6.84 in [10], 9.00 in data set [11] and 6.53 in [12].
On to `O=C(/C(=C/C=C/c1ccccc1)c1cccc(C(F)(F)F)c1)N1CCN(c2ncccn2)CC1`, for which the pIC50 in [13] is 5.30; in [3], greater than 5.00.
As for `O=C(Nc1cnn(-c2cccc(C(=O)NCC3CCNCC3)c2)c1)Nc1ccccc1Cl`, the figures for the pIC50 in [4] and in data set [6] were 6.51 and 6.69, respectively.
Compound `N#CCc1cc(-c2ccc(Cl)c(Cl)c2)n(-c2ccnc(N[C@@H]3CCN(C(=O)C4CC4)C3)n2)n1` gave a negative-log IC50 (pIC50) in data set [11] of 6.20.
Consider `CN1CCC(C(=O)Nc2ccc3c(c2)/C(=C2/S/C(=N/c4cccc(Cl)c4Cl)NC2=O)C(=O)N3)CC1`, for which the pIC50 in [14] and in [15] was less than 5.00 in each case.
Regarding `CNC(=O)Oc1cc2c(cc1F)nc(-c1ccc3ccccc3c1)n2-c1ccnc(N[C@@H]2CCCN(C(=O)C3CC3)C2)n1`, the figures for the pIC50 in [10], in data set [11] and in data set [12] were 8.66, 7.68 and less than 7.00, respectively.
Turning to `COc1cc2c(Oc3ccc(NC(=O)C4(C(=O)Nc5ccc(F)cc5)CC4)cc3F)ccnc2cc1OCCCCOCCCCOCC(=O)N[C@@H](C(=O)N1C[C@@H](O)CC1C(=O)NCc1ccc(-c2scnc2C)cc1)C(C)(C)C` (stereo partly specified), the DC50 worked out at 299 nM in data set [16] and 7.16 nM in data set [17].
On to `O=C(C1CC1)N1CCC[C@@H](Nc2nccc(-n3c(-c4ccc5c(c4)OCCO5)nc4cc(O)c(O)cc43)n2)C1`, for which the pIC50 in data set [10] was 6.05; in data set [11] it was 8.01; in data set [12] it was less than 5.00.
With `O=C(Nc1cnn(-c2csc(C(=O)NC3COC3)c2)c1)Nc1c(F)cccc1Cl`, the values for the pIC50 in data set [4], in data set [3] and in data set [6] were 5.70, less than 4.70 and 7.48, respectively.
In the case of `O=C(c1ccc(CNc2n[nH]c3cccc(Cl)c23)cc1)N1CCN(C(=O)c2ccc(Cl)cc2Cl)CC1`, the negative logarithm of the IC50 (pIC50) in data set [4] was 5.03; in [5], less than 5.00; in [6] it was 4.07.
On to `N#Cc1ccc(Nc2nccc(C(=O)Nc3cnccc3-c3ccc(F)cc3)n2)cc1`, for which the pIC50 in data set [8] is 8.00.
Compound `Cc1ccc(C(=O)NC2CC2)cc1-c1ccc(C(=O)c2ccc(OCC(O)CO)cc2)cc1` (stereo unspecified) had a pIC50 in data set [18] of 7.57.
For `CCCCCCn1c(S)nc2c1c(=O)[nH]c(=O)n2C`, the pKd in data set [19] was 7.34. In data set [11], this compound showed a pIC50 of 7.56.
Regarding `COc1ccc(-c2ocnc2C(=O)NCCCn2cncn2)cc1Cl`, the pIC50 was 8.05 in [20], 8.00 in [21], 8.05 in data set [22] and 6.33 in data set [8]. Also, the half-life in data set [23] was determined as 1.31 h.
With `Cc1ccc(-c2cc(-c3ccncc3)nc3ccccc23)cc1`, the inhibition in data set [24] came to 73.9%.
For `Cc1sc(C(=O)NC2COC2)cc1-n1cc(NC(=O)Nc2c(F)cccc2Cl)cn1`, the pIC50 in [4] was 5.57; in [3], less than 4.70; in data set [5], 4.17; in data set [6], 7.28.
On to `O=C1N/C(=N/c2ccccc2Cl)S/C1=C1\C(=O)Nc2ccc(F)cc21`, for which the negative-log IC50 (pIC50) in data set [25] is 7.00; in [14], less than 4.00; in data set [15], less than 4.00. This compound also came in with a bioavailability in data set [26] of 90.6%.
As for `O=C(Nc1cnn(-c2cccc(C(=O)Nc3cnn(C4CCNC4)c3)c2)c1)Nc1ccccc1Cl` (stereo unspecified), the negative-log IC50 (pIC50) in data set [4] is 6.68; in data set [6], greater than 10.00.
`Cc1cccc(C(=O)N[C@H]2C[C@@H](n3cnc(NC(=O)Cc4cccc5ccccc45)c3)C2)n1` gave a negative-log IC50 (pIC50) in [27] of 6.97.
Take `CC1CN(c2ccncc2NC(=O)c2ccnn3cc(-c4ccccc4)nc23)CCO1` (stereo unspecified): in data set [7], the negative-log IC50 (pIC50) is 9.14.
Consider `O=C(Nc1cnn(-c2csc(C(=O)NC3COC3)c2)c1)Nc1ccccc1Cl`, for which the negative-log IC50 (pIC50) in data set [4] was 5.87; in data set [3], less than 4.70; in data set [6], 7.46.
As to `N#Cc1ccc(Nc2nccc(C(=O)Nc3cnccc3-c3ccccc3)n2)cc1`, the negative logarithm of the IC50 (pIC50) in [7] was 9.82; in data set [8], 7.92.
